Measured values: patent US20230131899A1, “INHIBITORS OF MICROBIALLY INDUCED AMYLOID” (Axial Therapeutics, Inc., priority 2020, published 2023)
Read-outs that look alike come from different tables or passages of the source.

Biological target: T1, human α-synuclein (Homo sapiens, UniProt P37840)
T1 construct: the full-length gene for untagged human α-synuclein was inserted; made in house; host or cells: E. coli BL21(DE3), plasmid derived from pT7 or pET11a
Experiment: Cell-free Thioflavin T assay of α-synuclein aggregation (αSyn ThT Assay)
Format: biochemical
Settings: αSyn 50 μM
How it was run: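 Untagged full-length human α-synuclein from E. coli, 50 μM, with 20-40 μM ThT, 1% DMSO, compound at 20-100 μM and a glass bead, 37° C. with shaking. Fluorescence (ex 438/em 495 nm) read hourly to 73 h. Compound-only background subtracted and values normalised to vehicle at 36-72 h or final timepoint, giving % inhibition.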

[1] = class symbol, compounds 100 μM, read-out: αSyn ThT Assay % inhibition, activity range
[2] = mean percent inhibition relative to DMSO control, compounds 100 μM, read-out: αSyn ThT Assay % inhibition
[3] = mean % inhibition of αSyn aggregation relative to DMSO control, compounds at 100 μM, read-out: αSyn ThT Assay % Inhibition
[4] = compounds at 100 μM, class symbol, read-out: αSyn ThT Assay % Inhibition (activity range)

| Structure (SMILES) | inhibition at 100 µM [1] | inhibition at 100 µM [2] | inhibition at 100 µM [3] | inhibition at 100 µM [4] |
| --- | --- | --- | --- | --- |
| O=C(O)C1CN(Cc2ccc(CO)cc2)c2c(-c3cccc(C(F)(F)F)c3)c(Cc3cccc4ccccc34)c(Cl)c(=O)n21 (centres unmarked) [Compound 170, 6-chloro-1-(4-(hydroxymethyl)benzyl)-7-(naphthalen-1-ylmethyl)-5-oxo-8-(3-(trifluoromethyl)phenyl)-1,2,3,5-tetrahydroimidazo[1,2-a]pyridine-3-carboxylic acid] | 11 to 30% | 30% |  |  |
| NC(=O)c1c(Cc2cccc3ccccc23)c(-c2cccc(C(F)(F)F)c2)c2n(c1=O)C(C(=O)O)CN(C1CCCC1)S2(=O)=O (centres unmarked) [Compound 176, 7-carbamoyl-2-cyclopentyl-8-(naphthalen-1-ylmethyl)-6-oxo-9-(3-(trifluoromethyl)phenyl)-3,4-dihydro-2H,6H-pyrido[1,2-e][1,2,5]thiadiazine-4-carboxylic acid 1,1-dioxide] | > 60% | 98% |  |  |
| O=C(O)[C@@H]1CN(Cc2ccccc2)c2c(-c3cccc(C(F)(F)F)c3)c(Cc3cccc4ccccc34)c(Cl)c(=O)n21 (single isomer, unassigned) [Compound 004a] | 31 to 60% | 42% |  |  |
| CCCN1CC(C(=O)O)n2c(c(-c3cccc(C(F)(F)F)c3)c(Cc3cccc4ccccc34)cc2=O)S1(=O)=O (single isomer, unassigned) [Compound 016b, 8-(naphthalen-1-ylmethyl)-6-oxo-2-propyl-9-(3-(trifluoromethyl)phenyl)-3,4-dihydro-2H,6H-pyrido[1,2-e][1,2,5]thiadiazine-4-carboxylic acid 1,1-dioxide] |  |  | 95% | > 60% |
| CCCCCN1CC(C(=O)O)n2c(c(-c3cccc(C(F)(F)F)c3)c(Cc3cccc4ccccc34)cc2=O)S1(=O)=O (single isomer, unassigned) [Compound 025a, 8-(naphthalen-1-ylmethyl)-6-oxo-2-pentyl-9-(3-(trifluoromethyl)phenyl)-3,4-dihydro-2H,6H-pyrido[1,2-e][1,2,5]thiadiazine-4-carboxylic acid 1,1-dioxide] |  |  | 50% | 31 to 60% |
| O=C(O)C1CN(Cc2ccccc2)c2c(-c3cccc(C(F)(F)F)c3)c(C(F)(F)c3cccc4ccccc34)c(Br)c(=O)n21 (centres unmarked) [Compound 155, 1-benzyl-6-bromo-7-(difluoro(naphthalen-1-yl)methyl)-5-oxo-8-(3-(trifluoromethyl)phenyl)-1,2,3,5-tetrahydroimidazo[1,2-a]pyridine-3-carboxylic acid] | 31 to 60% | 60% |  |  |
| O=C(O)C1CN(CCCO)c2c(-c3cccc(C(F)(F)F)c3)c(Cc3cccc4ccccc34)c(Cl)c(=O)n21 (centres unmarked) [Compound 197, 6-chloro-1-(3-hydroxypropyl)-7-(naphthalen-1-ylmethyl)-5-oxo-8-(3-(trifluoromethyl)phenyl)-1,2,3,5-tetrahydroimidazo[1,2-a]pyridine-3-carboxylic acid] | 31 to 60% | 39% |  |  |
| CN1CC(C(=O)O)n2c(c(-c3cccc(C(F)(F)F)c3)c(Cc3cccc4ccccc34)c(NC3CCCC3)c2=O)S1(=O)=O (centres unmarked) [Compound 070, 7-(cyclopentylamino)-2-methyl-8-(naphthalen-1-ylmethyl)-6-oxo-9-(3-(trifluoromethyl)phenyl)-3,4-dihydro-2H,6H-pyrido[1,2-e][1,2,5]thiadiazine-4-carboxylic acid 1,1-dioxide] |  |  | 53% | 31 to 60% |
| O=C(O)C1CN(CCc2ccccc2)c2c(-c3cccc(C(F)(F)F)c3)c(Cc3cccc4ccccc34)c(Cl)c(=O)n21 (centres unmarked) [Compound 178, 6-chloro-7-(naphthalen-1-ylmethyl)-5-oxo-1-phenethyl-8-(3-(trifluoromethyl)phenyl)-1,2,3,5-tetrahydroimidazo[1,2-a]pyridine-3-carboxylic acid] | 31 to 60% | 43% |  |  |
| CC1(C(=O)O)CNS(=O)(=O)c2c(-c3cccc(C(F)(F)F)c3)c(Cc3cccc4ccccc34)cc(=O)n21 (centres unmarked) [Compound 042, 4-methyl-8-(naphthalen-1-ylmethyl)-6-oxo-9-(3-(trifluoromethyl)phenyl)-3,4-dihydro-2H,6H-pyrido[1,2-e][1,2,5]thiadiazine-4-carboxylic acid 1,1-dioxide] |  |  | 84% | > 60% |
| Cc1c(Cc2cccc3ccccc23)c(-c2cccc(C(F)(F)F)c2)c2n(c1=O)C(C(=O)O)CN(C)S2(=O)=O (centres unmarked) [Compound 068, 2,7-dimethyl-8-(naphthalen-1-ylmethyl)-6-oxo-9-(3-(trifluoromethyl)phenyl)-3,4-dihydro-2H,6H-pyrido[1,2-e][1,2,5]thiadiazine-4-carboxylic acid 1,1-dioxide] |  |  | 74% | > 60% |
| CCc1c(Cc2cccc3ccccc23)c(-c2cccc(C(F)(F)F)c2)c2n(c1=O)C(C(=O)O)CN2Cc1ccc(OC)cc1 (centres unmarked) [Compound 161, 6-ethyl-1-(4-methoxybenzyl)-7-(naphthalen-1-ylmethyl)-5-oxo-8-(3-(trifluoromethyl)phenyl)-1,2,3,5-tetrahydroimidazo[1,2-a]pyridine-3-carboxylic acid] | 31 to 60% | 44% |  |  |
| O=C(O)C1CN(Cc2ccccc2)c2c(-c3cccc(Br)c3)c(Cc3cccc4ccccc34)c(Cl)c(=O)n21 (centres unmarked) [Compound 198, 1-benzyl-8-(3-bromophenyl)-6-chloro-7-(naphthalen-1-ylmethyl)-5-oxo-1,2,3,5-tetrahydroimidazo[1,2-a]pyridine-3-carboxylic acid] | > 60% | 75% |  |  |
| Cn1c(=O)c2c(ncn2CCCCCCCN2CC(C(=O)O)n3c(c(-c4cccc(C(F)(F)F)c4)c(Cc4cccc5ccccc45)cc3=O)S2(=O)=O)n(C)c1=O (centres unmarked) [Compound 036] |  |  | 16% | 11 to 30% |
| CN1CC(C(=O)O)n2c(c(-c3cccc(C(F)(F)F)c3)c(Cc3cccc4ccccc34)c(C(=O)N3CCOCC3)c2=O)S1(=O)=O (centres unmarked) [Compound 160, 2-methyl-7-(morpholine-4-carbonyl)-8-(naphthalen-1-ylmethyl)-6-oxo-9-(3-(trifluoromethyl)phenyl)-3,4-dihydro-2H,6H-pyrido[1,2-e][1,2,5] thiadiazine-4-carboxylic acid 1,1-dioxide] | 11 to 30% | 17% |  |  |
| Cn1c(=O)c2c(nc(CCCCCN3CC(C(=O)O)n4c(c(-c5cccc(C(F)(F)F)c5)c(Cc5cccc6ccccc56)cc4=O)S3(=O)=O)n2C)n(C)c1=O (centres unmarked) [Compound 045, 8-(naphthalen-1-ylmethyl)-6-oxo-9-(3-(trifluoromethyl)phenyl)-2-(5-(1,3,7-trimethyl-2,6-dioxo-2,3,6,7-tetrahydro-1H-purin-8-yl)pentyl)-3,4-dihydro-2H,6H-pyrido[1,2-e][1,2,5]thiadiazine-4-carboxylic acid 1,1-dioxide] |  |  | 15% | 11 to 30% |
| O=C(O)C1CN(Cc2ccccc2)c2c(-c3cccc(C(F)(F)F)c3)c(Cc3cccc4ccccc34)c(F)c(=O)n21 (centres unmarked) [Compound 194, 1-benzyl-6-fluoro-7-(naphthalen-1-ylmethyl)-5-oxo-8-(3-(trifluoromethyl)phenyl)-1,2,3,5-tetrahydroimidazo[1,2-a]pyridine-3-carboxylic acid] | 31 to 60% | 57% |  |  |
| O=C(O)C1CN(Cc2ccccc2)c2c(-c3cccc(C(F)(F)F)c3)c(Cc3cccc4ccccc34)cc(=O)n21 (centres unmarked) [Compound 187, 1-benzyl-7-(naphthalen-1-ylmethyl)-5-oxo-8-(3-(trifluoromethyl)phenyl)-1,2,3,5-tetrahydroimidazo[1,2-a]pyridine-3-carboxylic acid] | 31 to 60% | 45% |  |  |
| Cn1c(=O)c2c(nc(CCCCN3CC(C(=O)O)n4c(c(-c5cccc(C(F)(F)F)c5)c(Cc5cccc6ccccc56)cc4=O)S3(=O)=O)n2C)n(C)c1=O (centres unmarked) [Compound 044, 8-(naphthalen-1-ylmethyl)-6-oxo-9-(3-(trifluoromethyl)phenyl)-2-(4-(1,3,7-trimethyl-2,6-dioxo-2,3,6,7-tetrahydro-1H-purin-8-yl)butyl)-3,4-dihydro-2H,6H-pyrido[1,2-e][1,2,5]thiadiazine-4-carboxylic acid 1,1-dioxide] |  |  | 10% | -10 to 10% |
| CCCCN1CC(C(=O)O)n2c(c(-c3cccc(C(F)(F)F)c3)c(Cc3cccc4ccccc34)c(C(N)=O)c2=O)S1(=O)=O (centres unmarked) [Compound 177, 2-butyl-7-carbamoyl-8-(naphthalen-1-ylmethyl)-6-oxo-9-(3-(trifluoromethyl)phenyl)-3,4-dihydro-2H,6H-pyrido[1,2-e][1,2,5]thiadiazine-4-carboxylic acid 1,1-dioxide] | > 60% | 97% |  |  |
| O=C(O)C1CSc2c(-c3cccc(C(F)(F)F)c3)c(Cc3cccc4ccccc34)c(CO)c(=O)n21 (centres unmarked) [Compound 057, 6-(hydroxymethyl)-7-(naphthalen-1-ylmethyl)-5-oxo-8-(3-(trifluoromethyl)phenyl)-2,3-dihydro-5H-thiazolo[3,2-a]pyridine-3-carboxylic acid] |  |  | 54% | 31 to 60% |
| CN(C)C(=O)C1CN(C)S(=O)(=O)c2c(-c3cccc(C(F)(F)F)c3)c(Cc3cccc4ccccc34)cc(=O)n21 (centres unmarked) [Compound 032, N,N-2-trimethyl-8-(naphthalen-1-ylmethyl)-6-oxo-9-(3-(trifluoromethyl)phenyl)-3,4-dihydro-2H,6H-pyrido[1,2-e][1,2,5]thiadiazine-4-carboxamide 1,1-dioxide] |  |  | 8% | -10 to 10% |
